Test results as given in US5508273A, “Substituted phosphonic acids and derivatives useful in treating bone wasting diseases” (priority 1993, dated 1996).
Like-named read-outs stand apart in the source and are kept apart here.

What was measured:
[1] = biological target: T1, human prostatic tyrosyl phosphatase (Homo sapiens, UniProt P15309); assay: biochemical; details: 30 minutes at 37° C., pH 5.5, (14C)-phosphotyrosine substrate; read-out: Tyr-Pase IC50
T1 construct: purchased Sigma Chemical Co
T1 sequence (P15309 33-386): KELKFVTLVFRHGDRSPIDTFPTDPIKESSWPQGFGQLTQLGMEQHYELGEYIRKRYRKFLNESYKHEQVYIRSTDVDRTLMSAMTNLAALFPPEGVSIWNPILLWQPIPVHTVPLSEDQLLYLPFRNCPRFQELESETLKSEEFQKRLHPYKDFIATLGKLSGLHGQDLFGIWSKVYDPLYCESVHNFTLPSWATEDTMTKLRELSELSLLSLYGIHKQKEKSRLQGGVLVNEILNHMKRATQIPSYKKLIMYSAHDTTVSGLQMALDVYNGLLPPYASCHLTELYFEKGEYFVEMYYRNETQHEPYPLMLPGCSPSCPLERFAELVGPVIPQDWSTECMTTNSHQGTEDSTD
Method: Inhibition of the activity of tyrosyl protein phosphatase was evaluated by incubating an aliquot of purified human prostatic tyrosyl protein acid phosphatase (Sigma Chemical Co.) with radiolabeled phosphotyrosine. The radiolabeled substrate, (^14 C)-phosphotyrosine, is separated from the product, (^14 C)-tyrosine by ion exchange chromatography and the production of radiolabeled tyrosine is quantified. Test compounds are screened at a concentration of one micromolar to 1 nM. The ability of test compounds to inhibit tyrosyl phosphatase was expressed as the % inhibition at the highest concentration of test compound tested and/or as the IC50 in Table 1.
The test compounds were incubated in the presence of tyrosyl acid phosphatase and radiolabeled substrate {(^14 C)-phosphotyrosine, (NEN Dupont Custom Synthesis)} plus cold O-phospho-L-tyrosine{(10 uM) (Sigma Chemical Co.)} in a 0.05 mM sodium acetate buffer (pH 5.5) for 30 minutes at 37° C. […] The incubation mixture was passed over an ion-exchange column {(Ag 1-X8) (Bio-Rad Laboratories)} and washed with 2.5 ml of distilled, deionized water. The total column effluent containing the radiolabeled product (^14 C-tyrosine) was collected and quantified by liquid scintillation spectroscopy. The test compounds IC50 was calculated using a quantal (all-or-none) dose-response calculation.

[2] = biological target: T2, Human osteoclastic acid phosphatase (OAP) (Homo sapiens, UniProt P13686); assay: Osteoclastic Acid Phosphatase (OAP) inhibition; type: biochemical; details: for inhibition at 100 µM: read-out: OAPase % Inh@100 uM
T2 construct: purified from hairy cell leukemia spleen; from tissue; host or cells: human hairy cell leukemia spleen
T2 sequence (P13686 22-325): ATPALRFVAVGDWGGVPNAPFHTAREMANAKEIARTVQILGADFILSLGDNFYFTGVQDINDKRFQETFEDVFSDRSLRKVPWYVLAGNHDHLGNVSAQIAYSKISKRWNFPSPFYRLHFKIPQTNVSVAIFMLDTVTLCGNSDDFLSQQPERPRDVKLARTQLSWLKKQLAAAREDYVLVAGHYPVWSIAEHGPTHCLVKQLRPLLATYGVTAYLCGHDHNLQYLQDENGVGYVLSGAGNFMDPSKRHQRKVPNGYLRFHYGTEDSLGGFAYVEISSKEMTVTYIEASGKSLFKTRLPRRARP
Method: Inhibitors of the enzyme are involved with the stimulation of osteoblast cell proliferation in cell culture which is predictive of enhancement of bone mass and bone formation in vivo. Inhibitors of osteoclastic acid phosphatase prevent the resorptive action of osteoclasts and thereby prevent the degradation of bone mass associated with osteoporosis.
The enzyme was stored at -80° C. and was diluted in 50 mM, pH 5.0, sodium acetate buffer prior to use. Test compounds were dissolved in ethanol, DMSO, or water and tested at 100 μM. The assay measures the ability of the enzyme to dephosphorylate methylumbelliferone phosphate to the product, methylumbelliferone, which is fluorescent. The enzyme assay is performed in 50 mM, pH 5.0, sodium acetate buffer as follows: 5 μL of compound was added to 150 μL Of buffered enzyme solution. […] The reaction was performed at room temperature at pH=5.0 and terminated after 20 minutes by the addition of 50 μL of 4N NaOH. The reaction product, methylumbelliferone, was measured by fluorescence determination using a Dynatech Microfluor Fluorescence detector.

[3] = pH 5.0, room temperature, 20 minutes, read-out: OAPase IC50
[4] = pH 5.0, room temperature, 20 minutes

Row | Compound | IC50 [1] [µM] | IC50 [2, 3] [µM] | inhibition at 100 µM [2, 4] [%] | IC50 [2] [µM]
1 | O=P(O)(O)C(c1ccccc1)C1CCCCC1 (centres unmarked) [Cmpd 4] | 6.9 | 1.4 |  | 
2 | O=P(O)(O)C(c1ccccc1)C1CCCCCC1 (centres unmarked) [Cmpd 5] | 23.5 |  | 6 | 
3 | O=P(O)(O)C(c1ccc(-c2ccccc2)cc1)C1CCCCC1 (centres unmarked) [Cmpd 6] | 37 |  | 40 | 
4 | Cc1cccc(C(C2CCCCC2)P(=O)(O)O)c1 (centres unmarked) [Cmpd 7] |  |  | 16 | 
5 | Cc1ccccc1C(C1CCCCC1)P(=O)(O)O (centres unmarked) [Cmpd 8] |  |  | 16 | 
6 | O=P(O)(O)C(CCc1ccccc1)c1ccccc1 (centres unmarked) [Cmpd 9] | 13.8 |  | 30 | 
7 | Cc1ccccc1C(c1ccccc1)P(=O)(O)O (centres unmarked) [Cmpd 11] | 37.8 |  | 13 | 
8 | O=P(O)(O)C(c1ccccc1)c1ccccc1Cl (centres unmarked) [Cmpd 13] | 30.7 |  | 12 | 
9 | O=P(O)(O)C(c1ccccc1)c1ccccc1C(F)(F)F (centres unmarked) [Cmpd 14, 2-Trifluoromethylphenyl(phenyl)methylphosphonic Acid] | 8.9 |  | 9 | 
10 | O=P(O)(O)C(c1ccccc1)c1cccc(Cl)c1 (centres unmarked) [Cmpd 15] | 15 |  | 31 | 
11 | O=P(O)(O)C(c1ccccc1)c1cccc(C(F)(F)F)c1 (centres unmarked) [Cmpd 16] | 67.1 |  | 26 | 
12 | O=[N+]([O-])c1cccc(C(c2ccccc2)P(=O)(O)O)c1 (centres unmarked) [Cmpd 17] | 17 |  | 89 | 
13 | Cc1cccc(C(c2ccccc2)P(=O)(O)O)c1 (centres unmarked) [Cmpd 18] | 14 |  | 4 | 
14 | Cc1ccc(C)c(C(c2ccccc2)P(=O)(O)O)c1 (centres unmarked) [Cmpd 19, 2,5-Dimethylphenyl(phenyl)methylphosphonic Acid] | 36.5 |  | 13 | 
15 | O=P(O)(O)C(c1cccc(C(F)(F)F)c1)c1cccc(C(F)(F)F)c1 [Cmpd 20, bis(3-Trifluoromethylphenyl)methylphosphonic Acid] | 29.3 |  | 28 | 
16 | O=P(O)(O)C(Cc1ccc(Cl)cc1)c1cccc2ccccc12 (centres unmarked) [Cmpd 48, 4-Chlorobenzyl(1-naphthyl)methylphosphonic acid] | 56.9 |  | 94 | 21
17 | O=C(c1ccccc1)C(C(=O)c1ccccc1)(c1cccc2ccccc12)P(=O)(O)O [Cmpd 55, bis(Benzoyl)(1-naphthyl)methylphosphonic Acid] | > 1 |  | 96 | 1.4

The next lines start with results.

Row | IC50 [1] [µM] | IC50 [2, 3] [µM] | inhibition at 100 µM [2, 4] [%] | Compound | IC50 [2] [µM]
18 | 44.2 |  | 10 | O=P(O)(O)C(c1ccccc1)c1ccc(F)cc1 (centres unmarked) [Cmpd 21] | 
19 | 40.8 | 100 |  | O=P(O)(O)C(c1ccccc1)c1ccc(C(F)(F)F)cc1 (centres unmarked) [Cmpd 23] | 
20 | 36.6 |  | 28 | COc1ccc(C(c2ccccc2)P(=O)(O)O)cc1 (centres unmarked) [Cmpd 24] | 
21 | 15.7 | 29 | 94 | O=P(O)(O)C(Cc1ccc(-c2ccccc2)cc1)c1ccccc1 (centres unmarked) [Cmpd 25] | 
22 | 102 |  | 20 | O=P(O)(O)C(c1ccccc1)c1ccc(Br)cc1 (centres unmarked) [Cmpd 26] | 
23 | 142 |  | 17 | O=P(O)(O)C(c1ccccc1)c1ccc(Cl)cc1 (centres unmarked) [Cmpd 27] | 
24 | 50 to 100 | 17 | 100 | O=P(O)(O)C(c1ccc(-c2ccccc2)cc1)c1ccc(-c2ccccc2)cc1 [Cmpd 28] | 
25 | 36 |  | 25 | Cc1cccc(CC(c2cccc(C(F)(F)F)c2)P(=O)(O)O)c1 (centres unmarked) [Cmpd 31] | 
26 | 66.2 |  | 10 | O=P(O)(O)C(Cc1ccc(C(F)(F)F)cc1)c1cccc(C(F)(F)F)c1 (centres unmarked) [Cmpd 32] | 
27 | 9 | 100 |  | O=P(O)(O)C(Cc1cccc(C(F)(F)F)c1)c1cccc(C(F)(F)F)c1 (centres unmarked) [Cmpd 35, 3-Trifluoromethylphenyl(3-trifluoromethylbenzyl)methylphosphonic Acid] | 
28 | 100 |  | 12 | O=P(O)(O)C(Cc1ccccc1)c1cccc(C(F)(F)F)c1 (centres unmarked) [Cmpd 36] | 
29 | 30.6 |  | 25 | O=P(O)(O)C(Cc1ccc(F)cc1)c1cccc(C(F)(F)F)c1 (centres unmarked) [Cmpd 37] | 
30 | 35.7 | 22 | 100 | O=P(O)(O)C(Cc1ccc(-c2ccccc2)cc1)c1cccc(C(F)(F)F)c1 (centres unmarked) [Cmpd 38] | 
31 | > 1 |  | 19 | O=P(O)(O)C(Cc1ccccc1)c1ccc2ccccc2c1 (centres unmarked) [Cmpd 40] | 
32 | > 1 | 6.3 | 100 | O=P(O)(O)C(Cc1ccc(-c2ccccc2)cc1)c1cccc2ccccc12 (centres unmarked) [Cmpd 42] | 
33 | > 10 | 11.4 | 73 | Cc1ccc2c(C(CC3CCCCC3)P(=O)(O)O)cccc2c1 (centres unmarked) [Cmpd 43] | 
34 |  |  | 73 | COc1ccc(CC(c2cccc3ccccc23)P(=O)(O)O)cc1 (centres unmarked) [Cmpd 44] | 
35 | 67.2 | 21 | 92 | O=P(O)(O)C(Cc1ccccc1)c1cccc2ccccc12 (centres unmarked) [Cmpd 45] | 
36 |  |  | 75 | Cc1ccc(CC(c2cccc3ccccc23)P(=O)(O)O)cc1 (centres unmarked) [Cmpd 46] | 
37 |  |  | 80 | O=[N+]([O-])c1ccc(CC(c2cccc3ccccc23)P(=O)(O)O)cc1 (centres unmarked) [Cmpd 47] | 
